Measurements from publication PMC12090182, “Repurposing of the RIPK1-Selective Benzo[1,4]oxazepin-4-one Scaffold for the Development of a Type III LIMK1/2 Inhibitor” (ACS Chemical Biology, 2025).
Where two headings read alike, the source gives them in different places.

Tested on: U2OS cells
Assay type: cell-based
Conditions: U2OS
Summary of the method: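 HEK293T and U2OS cells (DMEM) and MRC-9 fibroblasts (EMEM) exposed to compounds at 1 and 10 μM. Live-cell confocal imaging of cell shape and fluorescence before and at 12, 24 and 48 h. Normalized to 0.1% DMSO; biological duplicates with SEM.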

## CN1C(=O)[C@@H](N2CCc3c(nn(Cc4ccccc4)c3C(N)=O)C2=O)COc2cc(Cl)ccc21 [Compound 10, (S)-2-benzyl-6-(8-chloro-5-methyl-4-oxo-2,3,4,5-tetrahydrobenzo[b][1,4]oxazepin-3-yl)-7-oxo-4,5,6,7-tetrahydro-2H-pyrazolo[3,4-c]pyridine-3-carboxamide]
1 µM, 0 h, replicate 1
  Cell count normalized to cells treated with DMSO control: 1.139
  Cell count per well: 237
  Population Fragmented Nuclei (%): 37.05%
  Population Healthy Nuclei (%): 52.23%
  Population Pyknosed Nuclei (%): 10.71%
  Population apoptotic cell (%): 66.67%
  Population cell that influence microtubule strucutre (%): 2.56%
  Population with increased mitochondrial mass (%): 0.85%
  Population with membrane disruption (%): 5.98%
1 µM, 0 h, replicate 2
  Cell count normalized to cells treated with DMSO control: 0.8633
  Cell count per well: 74
  Population Fragmented Nuclei (%): 16.44%
  Population Healthy Nuclei (%): 79.45%
  Population Pyknosed Nuclei (%): 4.11%
  Population apoptotic cell (%): 33.33%
  Population cell that influence microtubule strucutre (%): 1.72%
  Population with increased mitochondrial mass (%): 1.72%
  Population with membrane disruption (%): 3.45%
1 µM, 12 h, replicate 1
  Cell count normalized to cells treated with DMSO control: 1.055
  Cell count per well: 279
  Population Fragmented Nuclei (%): 23.90%
  Population Healthy Nuclei (%): 65.44%
  Population Pyknosed Nuclei (%): 10.66%
  Population apoptotic cell (%): 75.86%
  Population cell that influence microtubule strucutre (%): 2.81%
  Population with increased mitochondrial mass (%): 1.69%
  Population with membrane disruption (%): 7.87%
1 µM, 12 h, replicate 2
  Cell count normalized to cells treated with DMSO control: 0.9215
  Cell count per well: 109
  Population Fragmented Nuclei (%): 11.11%
  Population Healthy Nuclei (%): 84.26%
  Population Pyknosed Nuclei (%): 4.63%
  Population apoptotic cell (%): 80.00%
  Population cell that influence microtubule strucutre (%): 2.20%
  Population with increased mitochondrial mass (%): 2.20%
  Population with membrane disruption (%): 3.30%
1 µM, 24 h, replicate 1
  Cell count normalized to cells treated with DMSO control: 1.136
  Cell count per well: 354
  Population Fragmented Nuclei (%): 25.72%
  Population Healthy Nuclei (%): 65.90%
  Population Pyknosed Nuclei (%): 8.38%
  Population apoptotic cell (%): 82.76%
  Population cell that influence microtubule strucutre (%): 4.39%
  Population with increased mitochondrial mass (%): 2.63%
  Population with membrane disruption (%): 7.02%
1 µM, 24 h, replicate 2
  Cell count normalized to cells treated with DMSO control: 0.9633
  Cell count per well: 137
  Population Fragmented Nuclei (%): 12.50%
  Population Healthy Nuclei (%): 81.62%
  Population Pyknosed Nuclei (%): 5.88%
  Population apoptotic cell (%): 87.50%
  Population cell that influence microtubule strucutre (%): 1.80%
  Population with increased mitochondrial mass (%): 1.80%
  Population with membrane disruption (%): 3.60%
1 µM, 48 h, replicate 1
  Cell count normalized to cells treated with DMSO control: 1.128
  Cell count per well: 502
  Population Fragmented Nuclei (%): 21.34%
  Population Healthy Nuclei (%): 69.72%
  Population Pyknosed Nuclei (%): 8.94%
  Population apoptotic cell (%): 86.36%
  Population cell that influence microtubule strucutre (%): 2.04%
  Population with increased mitochondrial mass (%): 3.21%
  Population with membrane disruption (%): 6.41%
1 µM, 48 h, replicate 2
  Cell count normalized to cells treated with DMSO control: 0.973
  Cell count per well: 201
  Population Fragmented Nuclei (%): 6.57%
  Population Healthy Nuclei (%): 83.33%
  Population Pyknosed Nuclei (%): 10.10%
  Population apoptotic cell (%): 85.00%
  Population cell that influence microtubule strucutre (%): 1.82%
  Population with increased mitochondrial mass (%): 2.42%
  Population with membrane disruption (%): 4.85%
1 μM
  cytotoxicity: no cytotoxicity
10 µM, 0 h, replicate 1
  Cell count normalized to cells treated with DMSO control: 1.1102
  Cell count per well: 231
  Population Fragmented Nuclei (%): 38.84%
  Population Healthy Nuclei (%): 51.34%
  Population Pyknosed Nuclei (%): 9.82%
  Population apoptotic cell (%): 95.45%
  Population cell that influence microtubule strucutre (%): 3.48%
  Population with increased mitochondrial mass (%): 3.48%
  Population with membrane disruption (%): 6.09%
10 µM, 0 h, replicate 2
  Cell count normalized to cells treated with DMSO control: 1.062
  Cell count per well: 91
  Population Fragmented Nuclei (%): 26.19%
  Population Healthy Nuclei (%): 64.29%
  Population Pyknosed Nuclei (%): 9.52%
  Population apoptotic cell (%): 100.00%
  Population cell that influence microtubule strucutre (%): 3.70%
  Population with increased mitochondrial mass (%): 3.70%
  Population with membrane disruption (%): 7.41%
10 µM, 12 h, replicate 1
  Cell count normalized to cells treated with DMSO control: 1.017
  Cell count per well: 269
  Population Fragmented Nuclei (%): 26.62%
  Population Healthy Nuclei (%): 63.50%
  Population Pyknosed Nuclei (%): 9.89%
  Population apoptotic cell (%): 73.08%
  Population cell that influence microtubule strucutre (%): 4.19%
  Population with increased mitochondrial mass (%): 6.59%
  Population with membrane disruption (%): 8.38%
10 µM, 12 h, replicate 2
  Cell count normalized to cells treated with DMSO control: 0.9722
  Cell count per well: 115
  Population Fragmented Nuclei (%): 22.52%
  Population Healthy Nuclei (%): 63.96%
  Population Pyknosed Nuclei (%): 13.51%
  Population apoptotic cell (%): 100.00%
  Population cell that influence microtubule strucutre (%): 7.04%
  Population with increased mitochondrial mass (%): 9.86%
  Population with membrane disruption (%): 7.04%
10 µM, 24 h, replicate 1
  Cell count normalized to cells treated with DMSO control: 0.9881
  Cell count per well: 308
  Population Fragmented Nuclei (%): 23.59%
  Population Healthy Nuclei (%): 66.78%
  Population Pyknosed Nuclei (%): 9.63%
  Population apoptotic cell (%): 96.55%
  Population cell that influence microtubule strucutre (%): 6.97%
  Population with increased mitochondrial mass (%): 4.98%
  Population with membrane disruption (%): 5.97%
10 µM, 24 h, replicate 2
  Cell count normalized to cells treated with DMSO control: 0.886
  Cell count per well: 126
  Population Fragmented Nuclei (%): 18.18%
  Population Healthy Nuclei (%): 71.90%
  Population Pyknosed Nuclei (%): 9.92%
  Population apoptotic cell (%): 100.00%
  Population cell that influence microtubule strucutre (%): 6.90%
  Population with increased mitochondrial mass (%): 6.90%
  Population with membrane disruption (%): 10.34%
10 µM, 48 h, replicate 1
  Cell count normalized to cells treated with DMSO control: 0.9437
  Cell count per well: 420
  Population Fragmented Nuclei (%): 19.22%
  Population Healthy Nuclei (%): 67.40%
  Population Pyknosed Nuclei (%): 13.38%
  Population apoptotic cell (%): 90.91%
  Population cell that influence microtubule strucutre (%): 3.61%
  Population with increased mitochondrial mass (%): 3.97%
  Population with membrane disruption (%): 5.78%
10 µM, 48 h, replicate 2
  Cell count normalized to cells treated with DMSO control: 0.7019
  Cell count per well: 145
  Population Fragmented Nuclei (%): 21.28%
  Population Healthy Nuclei (%): 65.96%
  Population Pyknosed Nuclei (%): 12.77%
  Population apoptotic cell (%): 83.33%
  Population cell that influence microtubule strucutre (%): 7.53%
  Population with increased mitochondrial mass (%): 7.53%
  Population with membrane disruption (%): 15.05%
1 μM (Figure 6)
  impact on tubulin, mitochondrial mass, and cellular permeability in healthy cells: comparable to that of the 0.1% DMSO control
